What was measured:
[1] = molecular target: T1, HCV NS3/4A protease complex (H77C strain) (Hepatitis C virus genotype 1a, UniProt P27958, C1454S); experiment: Recombinant HCV NS3/4A protease complex FRET peptide assay, H77C strain; type: biochemical, HCV genotype 1a
T1 construct: HCV NS3/4A protease complex (amino acids 1027 to 1711); inferred from pET21b vector and Ni-NTA purification; made in house; host or cells: Escherichia coli BL21 (DE3), pET21b
Excerpt: Recombinant HCV NS3/4A Protease Complex FRET Peptide Assay
The purpose of this in vitro assay was to measure the inhibition of HCV NS3 protease complexes, derived from the BMS, H77C or J4l6S strains, as described below, by compounds of the present invention. This assay provides an indication of how effective compounds of the present invention would be in inhibiting HCV proteolytic activity.
Serum from an HCV-infected patient was obtained from Dr. T. Wright, San Francisco Hospital. An engineered full-length cDNA template of the HCV genome (BMS strain) was constructed from DNA fragments obtained by reverse transcription-PCR (RT-PCR) of serum RNA and using primers selected on the basis of homology between other genotype la strains. From the determination of the entire genome sequence, a genotype la was assigned to the HCV isolate according to the classification of Simmonds et al. (See P Simmonds, K A Rose, S Graham, S W Chan, F McOmish, B C Dow, E A Follett, P L Yap and H Marsden, J. Clin. Microbiol., 31(6), 1493-1503 (1993)). […]

[2] = molecular target: T2, porcine pancreatic elastase (PPE) (Sus scrofa, UniProt P00772); experiment: Specificity assay, porcine pancreatic elastase; type: biochemical; conditions: 2 hr enzyme-inhibitor pre-incubation
T2 construct: porcine pancreatic elastase (PPE); from tissue; host or cells: porcine pancreas (from the enzyme's name only)
T2 sequence (P00772 27-266): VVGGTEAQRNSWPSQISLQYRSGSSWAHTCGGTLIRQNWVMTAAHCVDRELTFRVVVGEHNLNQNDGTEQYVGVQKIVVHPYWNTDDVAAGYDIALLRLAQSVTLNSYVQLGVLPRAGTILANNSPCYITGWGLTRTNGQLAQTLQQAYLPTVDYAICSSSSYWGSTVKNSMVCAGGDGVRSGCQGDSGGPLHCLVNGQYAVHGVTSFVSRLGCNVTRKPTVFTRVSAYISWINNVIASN
Experimental: (§1) The specificities of compounds of the present invention were determined against a variety of serine proteases: human sputum elastase (HS), porcine pancreatic elastase (PPE) and human pancreatic chymotrypsin and one cysteine protease: human liver cathepsin B. In all cases a 96-well plate format protocol using colorimetric p-nitroaniline (pNA) substrate specific for each enzyme was used as described previously (CT 2633 application) with some modifications to the serine protease assays.
(§2) Each assay included a 2 hr enzyme-inhibitor pre-incubation at RT followed by addition of substrate and hydrolysis to ˜30% conversion as measured on a Spectramax Pro microplate reader. Compound concentrations varied from 100 to 0.4 μM depending on their potency.
(§3) The final conditions and protocol for the serine protease assays were: • 50 mM Tris(hydroxymethyl)aminomethane hydrochloride (Tris-HCl) pH8, • 0.5M Sodium Sulfate (Na2SO4), 50 mM NaCl, 0.1 mM EDTA, 3% DMSO, • 0.01% Tween-20 with: 133 μM succ-AAA-pNA and 20 nM HS or 8 nM PPE; 100 μM succ-AAPF-pNA and 250 pM Chymotrypsin.
(§4) The percentage of inhibition was calculated using the formula: [1−((UVinh−UVblank)/(UVctl−UVblank))]×100
(§5) A non-linear curve fit was applied to the inhibition-concentration data, and the 50% effective concentration (IC50) was calculated by the use of Excel Xl-fit software.

[3] = system: human pancreatic chymotrypsin; experiment: Specificity assay, human pancreatic chymotrypsin; type: biochemical; conditions: 2 hr enzyme-inhibitor pre-incubation
Experimental: as §1, §2, §3, §4, §5

[4] = molecular target: T3, human liver cathepsin B (Homo sapiens, UniProt P07858); experiment: Specificity assay, human liver cathepsin B; type: biochemical; conditions: 2 hr enzyme-inhibitor pre-incubation; solubility issues at 100 μM
T3 construct: one cysteine protease: human liver cathepsin B; from tissue; host or cells: human liver (from the enzyme's name only)
Experimental: as §1, §2, §4, §5

T1 sequence (P27958 1027-1657 C1454S): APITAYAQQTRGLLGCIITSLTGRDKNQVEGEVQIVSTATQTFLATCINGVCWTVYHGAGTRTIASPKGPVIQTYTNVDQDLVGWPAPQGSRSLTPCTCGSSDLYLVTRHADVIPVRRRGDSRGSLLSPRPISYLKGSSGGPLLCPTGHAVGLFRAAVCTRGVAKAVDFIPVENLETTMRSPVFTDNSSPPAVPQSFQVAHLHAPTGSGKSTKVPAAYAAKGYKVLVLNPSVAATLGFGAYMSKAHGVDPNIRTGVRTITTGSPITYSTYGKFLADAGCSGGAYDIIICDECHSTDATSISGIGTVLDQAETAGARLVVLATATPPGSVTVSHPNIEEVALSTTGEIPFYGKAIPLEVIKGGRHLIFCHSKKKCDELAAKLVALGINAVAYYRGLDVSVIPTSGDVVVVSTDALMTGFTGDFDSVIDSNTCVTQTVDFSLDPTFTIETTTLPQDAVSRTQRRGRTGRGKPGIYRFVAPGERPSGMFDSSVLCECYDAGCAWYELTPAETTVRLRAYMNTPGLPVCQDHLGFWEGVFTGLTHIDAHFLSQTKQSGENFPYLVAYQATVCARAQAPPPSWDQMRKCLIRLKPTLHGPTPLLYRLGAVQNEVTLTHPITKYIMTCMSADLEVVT
T1 sequence (P27958 1658-1711 partner, looked up, stated change not applied): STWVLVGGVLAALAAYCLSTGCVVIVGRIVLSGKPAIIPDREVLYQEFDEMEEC

Work on C=CC1C[C@]1(NC(=O)[C@@H]1C[C@@H](Oc2cc(-c3ccccc3)nc3cc(OC)ccc23)CN1C(=O)[C@@H](NC(=O)OC(C)(C)C)C(C)(C)C)C(=O)NS(=O)(=O)c1cccs1 (stereo in doubt) [Compound 1, (1-{4-(7-Methoxy-2-phenylquinolin-4-yloxy)-2-[1-(thiophene-2-sulfonylaminocarbonyl)-2-vinyl-cyclopropylcarbamoyl]-pyrrolidine-1-carbonyl}-2,2-dimethylpropyl)carbamic acid tert-butyl ester] yielded an IC50 [1] of 0.0022 µM, an IC50 [2] of over 50 µM and an IC50 [3] of over 50 µM. The IC50 [4] was over 50 µM.

From patent publication US6869964B2, “Heterocyclicsulfonamide hepatitis C virus inhibitors” (Bristol-Myers Squibb Company, priority 2002, dated 2005)
